Assay results taken from PubChem BioAssay (NCI).
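Values below derive from 48-hour exposures of cells grown in 96-well plates, with endpoints linearly interpolated between the two concentrations bracketing the appropriate inhibition level. TGI marks complete inhibition of growth.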 *1 amine or outer side, *2 acyl side, *3 side chain or, on linkers, in order; H or OH if unused. Where a SMILES comes first, the peptide text is derived from it. Bridges are numbered along the chain shown (N, C = ends). Roman numbers before positions name the chains, in order. [ ]: non-standard residue; d: D form. Actinocin(9to1) = Cc1c2oc3c(C)ccc(C(=O)[*:1])c3nc-2c(C(=O)[*:2])c(N)c1=O; NMeV = CN[CH](C(=O)O)C(C)C; Sar = CNCC(=O)O

Key:
Test in all cases: NCI anticancer screen, dose series, 48 h
A498 renal = test system: A498 renal
COLO 205 colon = test system: COLO 205 colon
HCT-116 colon = test system: HCT-116 colon
HT29 colon = test system: HT29 colon
IGROV1 ovarian = test system: IGROV1 ovarian
MDA-MB-231 breast = test system: MDA-MB-231 breast
MDA-MB-435 = test system: MDA-MB-435
NCI-H522 lung = test system: NCI-H522 lung
PC-3 prostate = test system: PC-3 prostate
RXF 393 renal = test system: RXF 393 renal
SF-539 CNS = test system: SF-539 CNS
SK-MEL-5 melanoma = test system: SK-MEL-5 melanoma
SK-OV-3 ovarian = test system: SK-OV-3 ovarian
SNB-19 CNS = test system: SNB-19 CNS
SR leukemia = test system: SR leukemia
UACC-257 melanoma = test system: UACC-257 melanoma
HCC-2998 colon = test system: HCC-2998 colon

Row | SMILES | TGI (A498 renal) | TGI (COLO 205 colon) | TGI (HCT-116 colon) | TGI (HT29 colon) | TGI (IGROV1 ovarian) | TGI (MDA-MB-231 breast) | TGI (MDA-MB-435) | TGI (NCI-H522 lung) | TGI (PC-3 prostate) | TGI (RXF 393 renal) | TGI (SF-539 CNS) | TGI (SK-MEL-5 melanoma) | TGI (SK-OV-3 ovarian) | TGI (SNB-19 CNS) | TGI (SR leukemia) | TGI (UACC-257 melanoma) | TGI (HCC-2998 colon)
1 | COc1cc2c(/C=C3/C(=O)Nc4cccc(Cl)c43)c(Cl)[nH]c2cc1C | 20.7 µM | 4.1 µM | 3.19 µM | 3.96 µM | 11.8 µM | 3.2 µM | 3.44 µM | 6.74 µM | 11.8 µM | 7.41 µM | 3.38 µM | 14.3 µM | 5.67 µM | 7.13 µM | 2.95 µM | 10.2 µM | 
2 | CCOC(=O)CCCSCCCC(=O)CCCSCCCC(=O)OCC |  | > 100 µM | > 100 µM | > 100 µM | > 100 µM | > 100 µM | > 100 µM | > 100 µM | > 100 µM |  | > 100 µM | > 100 µM | > 100 µM | > 100 µM | > 100 µM | > 100 µM | > 100 µM
3 | C[C@]12c3c4cc(NC(=O)C(=O)NCc5ccc(-c6ccccn6)nc5)cc3Oc3cc(NC(=O)C(=O)NCc5ccc(-c6ccccn6)nc5)cc(c31)OC1C=C(NC(=O)C(=O)NCc3ccc(-c5ccccn5)nc3)C=C(O4)C12 (some centres undefined) |  | > 100 µM | > 100 µM | > 100 µM | 40.6 µM | 27.5 µM | > 100 µM | > 100 µM | > 100 µM | > 100 µM | > 100 µM | > 100 µM | > 100 µM | > 100 µM | 51.9 µM | > 100 µM | 
4 | O=C1c2cc3c(cc2CC12Cc1ccc4c(c1C2=O)CCC4)CCCC3 (centres undefined) | > 100 µM |  | > 100 µM | > 100 µM | > 100 µM | > 100 µM | > 100 µM | > 100 µM | > 100 µM | > 100 µM | > 100 µM | > 100 µM | > 100 µM | > 100 µM | > 100 µM | > 100 µM | > 100 µM
5 | COc1cc(OCCN(C)C)c2[nH]c(C(=O)N3CC(CCl)c4ccc(N)cc43)cc2c1 (centres undefined) | 0.508 µM | 0.17 µM | 1.64 µM | 0.262 µM |  | 9.37 µM | 0.281 µM |  | 1.34 µM | 0.033 µM |  | 0.197 µM | 32 µM | 2.59 µM | > 100 µM | 0.329 µM | 0.297 µM
6 | O=C1c2ccccc2-n2nnnc2C2CSCN12 (centres undefined) | > 100 µM | > 100 µM | > 100 µM | > 100 µM | > 100 µM | > 100 µM | > 100 µM | > 100 µM | > 100 µM | > 100 µM |  | > 100 µM | > 100 µM | > 100 µM | > 100 µM | > 100 µM | > 100 µM
7 | CCN(CC)CCCNC(=O)c1cc(-c2nccn2C)nc2ccccc12 | > 100 µM | > 100 µM | > 100 µM | > 100 µM | > 100 µM | > 100 µM | > 100 µM | > 100 µM | > 100 µM | > 100 µM | > 100 µM | > 100 µM |  | > 100 µM |  | > 100 µM | > 100 µM
8 | CC1=NN(c2nc(N)nc(COc3ccc(N)cc3)n2)C(C)(C)C1 | > 100 µM | > 100 µM | > 100 µM | > 100 µM | > 100 µM | > 100 µM | > 100 µM |  | > 100 µM | > 100 µM | > 100 µM | > 100 µM | > 100 µM | > 100 µM | > 100 µM | > 100 µM | > 100 µM
9 | COc1ccc(C(C)NNC(=O)c2ccncc2)cc1OC (centres undefined) | > 100 µM | > 100 µM | > 100 µM | > 100 µM | > 100 µM | > 100 µM | > 100 µM |  | > 100 µM | > 100 µM | > 100 µM | > 100 µM | > 100 µM | > 100 µM | > 100 µM | > 100 µM | > 100 µM
10 | Cc1c2oc3c(C)ccc(C(=O)NC4C(=O)NC(C(C)C)C(=O)N5CCCC5C(=O)N(C)CC(=O)N(C)C(C(C)C)C(=O)OC4C)c3nc-2c(C(=O)NC2C(=O)NC(C(C)C)C(=O)N3CCCC3C(=O)N(C)CC(=O)N(C)C(C(C)C)C(=O)OC2C)c(N)c1=O (centres undefined) (I: TVP[Sar][NMeV] / II: TVP[Sar][NMeV]; ester I:1-I:C, II:1-II:C; linker I:N-II:N via Actinocin(9to1); configuration not given here) | 0.0152 µM | 0.00299 µM | > 1 µM | 0.00207 µM | > 0.396 µM | > 0.231 µM | 0.0125 µM | 0.00137 µM | 0.0317 µM | 0.00653 µM | 0.00299 µM | 0.0153 µM | > 1 µM | > 0.35 µM |  | 0.0231 µM | 0.0272 µM
11 | COc1ccc2oc3c(C)cc4c(OC)nnc(OC)c4c3c2c1 | > 100 µM | > 100 µM | 6.55 µM | > 100 µM |  | > 100 µM | > 100 µM | > 100 µM | > 100 µM | > 100 µM | > 100 µM | > 100 µM | > 100 µM | > 100 µM |  | > 100 µM | > 100 µM
12 | N#Cc1nc(-c2cnccn2)oc1N | > 100 µM |  | > 100 µM | > 100 µM | > 100 µM | > 100 µM | > 100 µM |  | > 100 µM | > 100 µM |  | > 100 µM | > 100 µM | > 100 µM | > 100 µM | > 100 µM | 
13 | Cc1ccc2nc(-c3ccccc3)cc(=O)n2c1 |  | > 100 µM | > 100 µM | > 100 µM | > 100 µM | > 100 µM | > 100 µM | > 100 µM | > 100 µM | > 100 µM | > 100 µM | > 100 µM | > 100 µM | > 100 µM | > 100 µM |  | > 100 µM
14 | CCOC(=O)C(=[N+]=[N-])C(=O)CN1C(=O)c2ccccc2C1=O | > 100 µM | > 100 µM | > 100 µM | > 100 µM | > 100 µM | > 100 µM | > 100 µM | > 100 µM | > 100 µM | > 100 µM | > 100 µM | > 100 µM | > 100 µM | > 100 µM |  | > 100 µM | > 100 µM
